Laboratory results from patent US9682967B2.

Legend:
mSortilin = mSortilin (Mus musculus (Mouse), UniProt Q6PHU5); assay: mSortilin affinity assay (displacement of 3H-neurotensin, SPA); assay type: binding
Description: Mouse his-Sortilin was purchased from R&D Systems.
The Sortilin assay was performed in total volume of 40 ul in 50 mM HEPES pH 7.4 assay buffer containing 100 mM NaCl, 2.0 mM CaCl2, 0.1% BSA and 0.1% Tween-20. Varying concentration of compounds where pre-incubated for 30 min at RT with 50 nM of 6his-Sortilin. […] Ni chelate imaging beads (Perkin elmer) was added and the plate was slowly shacked in the dark for 60 min. The imaging beads were allowed minimum 6 hours settling time before the plate was read on a ViewLux with 360 sec exposure time. Dose-response evaluation of compounds was performed with 10 concentrations of drugs (covering 3 decades). IC50 values were calculated by nonlinear regression using the sigmoid concentration-response (variable slope) using Xlfit 4 (IDBS, UK). The results were given as Ki values (nM) derived from computer fitted IC50 values converted to Ki values using the Cheng-Prusoff equation (Ki=IC50/(1+(L/Kd))).

[1] = target: human sortilin (S-18 cells) (Homo sapiens (Human), UniProt Q99523); assay: Endogenous PGRN endocytosis assay (PGRN ELISA of media); assay type: cell-based; conditions: for PGRN levels in cell culture media (FIG. 1): PGRN allowed to accumulate 24 hrs, then compounds for further 24 hrs
[2] = target: human sortilin (HEK 293 / S-18 cells) (Homo sapiens (Human), UniProt Q99523); assay: Cellomics progranulin assay (PGRN binding/endocytosis, staining intensity); assay type: cell-based; conditions: compounds 30 min, then PGRN 60 min
Description: Cellomics Progranulin Assay
Transfected HEK 293 cells (with control or sortilin expression plasmids) or stable HEK293 cells expressing human sortilin (S-18) were used in this assay. Cells are trypsinized and plated in 96 well plates. In the case of transiently transfected cells, they were plated 24 hrs after transfection in 96 well plates. Next day, media was changed completely and test compounds added to cells for 30 min. followed by PGRN for 60 min. At the end of the study (after 1.5 hrs), the cells were fixed and stained for sortilin and progranulin. All stained plates were analyzed by Cellomics Array Scan (Thermo Fischer) and average staining intensity for PGRN and sortilin are calculated per cell in each well.

hSortilin = hSortilin (Homo sapiens (Human), UniProt Q99523); assay: hSortilin affinity assay (displacement of 3H-neurotensin, SPA); assay type: binding
Chain of hSortilin (Q99523 34-755): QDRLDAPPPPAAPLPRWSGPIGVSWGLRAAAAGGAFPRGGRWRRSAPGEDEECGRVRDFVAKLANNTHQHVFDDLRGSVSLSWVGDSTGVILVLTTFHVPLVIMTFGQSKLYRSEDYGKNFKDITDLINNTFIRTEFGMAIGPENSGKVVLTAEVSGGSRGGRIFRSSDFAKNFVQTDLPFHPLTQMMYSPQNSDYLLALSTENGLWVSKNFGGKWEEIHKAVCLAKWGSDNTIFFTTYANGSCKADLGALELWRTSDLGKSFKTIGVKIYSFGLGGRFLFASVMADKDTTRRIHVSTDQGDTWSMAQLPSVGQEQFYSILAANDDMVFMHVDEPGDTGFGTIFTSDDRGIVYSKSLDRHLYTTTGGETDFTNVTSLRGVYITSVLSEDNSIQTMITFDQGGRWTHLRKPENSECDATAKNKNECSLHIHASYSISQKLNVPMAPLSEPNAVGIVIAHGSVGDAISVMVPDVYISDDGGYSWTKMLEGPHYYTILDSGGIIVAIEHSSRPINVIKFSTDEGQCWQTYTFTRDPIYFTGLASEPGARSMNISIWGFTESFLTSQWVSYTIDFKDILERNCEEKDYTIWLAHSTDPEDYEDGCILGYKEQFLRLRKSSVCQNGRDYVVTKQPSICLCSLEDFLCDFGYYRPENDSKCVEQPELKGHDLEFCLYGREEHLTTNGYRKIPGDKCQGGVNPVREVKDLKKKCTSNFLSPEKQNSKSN

Chain of human sortilin (S-18 cells) (Q99523 78-831): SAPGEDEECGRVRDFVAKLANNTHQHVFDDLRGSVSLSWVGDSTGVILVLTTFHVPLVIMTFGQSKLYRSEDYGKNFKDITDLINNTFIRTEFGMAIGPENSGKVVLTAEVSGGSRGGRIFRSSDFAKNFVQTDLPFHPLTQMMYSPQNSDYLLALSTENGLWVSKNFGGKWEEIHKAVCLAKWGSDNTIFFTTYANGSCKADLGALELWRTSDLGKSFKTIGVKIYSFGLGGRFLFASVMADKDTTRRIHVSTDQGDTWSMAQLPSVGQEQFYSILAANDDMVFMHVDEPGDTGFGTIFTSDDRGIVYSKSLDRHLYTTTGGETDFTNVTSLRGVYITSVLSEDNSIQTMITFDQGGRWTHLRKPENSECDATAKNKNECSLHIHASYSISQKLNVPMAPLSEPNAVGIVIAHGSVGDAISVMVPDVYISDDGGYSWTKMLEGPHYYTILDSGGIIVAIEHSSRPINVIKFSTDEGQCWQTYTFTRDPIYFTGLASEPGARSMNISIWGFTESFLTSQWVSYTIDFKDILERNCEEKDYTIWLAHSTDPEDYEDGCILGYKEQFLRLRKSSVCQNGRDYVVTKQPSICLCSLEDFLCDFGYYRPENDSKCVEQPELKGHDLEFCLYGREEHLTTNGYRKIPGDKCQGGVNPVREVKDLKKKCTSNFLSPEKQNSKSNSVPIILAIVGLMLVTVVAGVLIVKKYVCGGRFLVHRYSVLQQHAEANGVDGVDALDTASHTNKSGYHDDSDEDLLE
Chain of mSortilin (Q6PHU5 74-825): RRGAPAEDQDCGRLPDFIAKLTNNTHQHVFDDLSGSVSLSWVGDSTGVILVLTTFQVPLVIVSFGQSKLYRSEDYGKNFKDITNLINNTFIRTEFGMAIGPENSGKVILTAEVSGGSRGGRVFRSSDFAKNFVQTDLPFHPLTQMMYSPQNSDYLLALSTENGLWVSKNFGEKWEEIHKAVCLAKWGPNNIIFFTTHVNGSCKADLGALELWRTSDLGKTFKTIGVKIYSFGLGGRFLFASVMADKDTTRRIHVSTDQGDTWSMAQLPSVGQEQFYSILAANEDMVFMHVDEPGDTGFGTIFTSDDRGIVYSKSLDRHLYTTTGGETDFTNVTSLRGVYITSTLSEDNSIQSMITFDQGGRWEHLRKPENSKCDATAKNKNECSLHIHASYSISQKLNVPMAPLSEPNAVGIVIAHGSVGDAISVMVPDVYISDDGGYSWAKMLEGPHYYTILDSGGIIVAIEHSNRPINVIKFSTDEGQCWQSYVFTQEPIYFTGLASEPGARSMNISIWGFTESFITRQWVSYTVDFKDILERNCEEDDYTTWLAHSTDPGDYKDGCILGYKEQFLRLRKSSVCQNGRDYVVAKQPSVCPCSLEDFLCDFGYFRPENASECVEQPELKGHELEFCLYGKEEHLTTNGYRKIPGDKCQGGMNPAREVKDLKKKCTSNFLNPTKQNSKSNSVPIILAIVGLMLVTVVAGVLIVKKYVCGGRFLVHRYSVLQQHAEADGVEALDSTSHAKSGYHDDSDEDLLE
Chain of human sortilin (HEK 293 / S-18 cells) (Q99523 78-831): as the sequence (Q99523 78-831) above

Molecule | IC50 (mSortilin; [3H]-Neurotensin 5 nM, 50 nM 6his-Sortilin, read-out: mSortilin NTS Binding IC50) [nM] | Ki (mSortilin; from IC50 by Cheng-Prusoff) [nM] | increase in PGRN in cell culture media as compared to control wells ([1]; 10 uM, media collected on day 3) | PGRN levels in cell culture media (FIG. 1) [1] | PGRN fluorescence intensity / binding or endocytosis of PGRN to sortilin expressing cells (FIG. 2) [2] | IC50 (hSortilin; [3H]-Neurotensin 5 nM, 150 nM 6his-Sortilin, read-out: hSortilin NTS Binding IC50) [nM] | Ki (hSortilin; from IC50 by Cheng-Prusoff, Kd neurotensin 100 nM) [nM]
Cc1cccc(NC(=O)c2ccc(C(F)(F)F)cc2C(=O)O)n1 [Example 1, N-(6-Methyl-pyridin-2-yl)-5-trifluoromethyl-phthalamic acid] | 220 | 210 | 85-100% | increase in PGRN levels | blocks binding or endocytosis of PGRN | – | –
scrambled neurotensin: scrambled neurotensin, sequence LIYPRNEYELRKP (SEQ ID NO:1); negative control (Scrambled Human Neurotensin) [reference compound] | – | – | – | did not have any effect | significantly increased | – | –
Cc1cc(NC(=O)c2ccc(C(F)(F)F)cc2C(=O)O)cc(C)n1 [Example 51, 2-((2,6-dimethylpyridin-4-yl)carbamoyl)-5-(trifluoromethyl)benzoic acid] | – | – | – | – | – | 640 | 614
